These results are taken from patent US12673942B2, “Azabicyclyl-substituted heterocycles as fungicides” (Bayer Aktiengesellschaft, priority 2020, dated 2026).

The nature of data set [1]: Measurement of Log P values by HPLC on reversed phase columns (EEC directive 79/831 Annex V.A8). The class given is physicochemical. As to the method: Measurement of Log P values as provided herein was performed according to EEC directive 79/831 Annex V.A8 by HPLC (High Performance Liquid Chromatography) on reversed phase columns with the following methods: • ^[a] Log P value is determined by measurement of LC-UV, in an acidic range, with 0.1% formic acid in water and acetonitrile as eluent (linear gradient from 10% acetonitrile to 95% acetonitrile). • ^[b] Log P value is determined by measurement of LC-UV, in a neutral range, with 0.001 molar ammonium acetate solution in water and acetonitrile as eluent (linear gradient from 10% acetonitrile to 95% acetonitrile). • ^[c] Log P value is determined by measurement of LC-UV, in an acidic range, with 0.1% phosphoric acid and acetonitrile as eluent (linear gradient from 10% acetonitrile to 95% acetonitrile).
If more than one Log P value is available within the same method, all the values are given and separated by “+”. […]

Another data set relates to Alternaria alternata. Briefly: Alternaria alternata in vitro cell test. The class given is cell-based. The conditions noted are these: 120 h, 20 ppm of active ingredient, liquid culture, 5 days incubation, read-out: efficacy (inhibition of fungal growth). As to the method: (§1) • Solvent: […] Fungicides were solubilized in DMSO and the solution used to prepare the required range of concentrations. The final concentration of DMSO used in the assay was ≤1%. A spore suspension of Alternaria alternata was prepared and diluted to the desired spore density. Fungicides were evaluated for their ability to inhibit spore germination and mycelium growth in liquid culture assay. The compounds were added in the desired concentration to the culture medium with spores. After 5 days incubation, fungi-toxicity of compounds was determined by spectrometric measurement of mycelium growth. Inhibition of fungal growth was determined by comparing the absorbance values in wells containing the fungicides with the absorbance in control wells without fungicides.

For a further data set, the system named is Fusarium culmorum. The experiment in a line: Fusarium culmorum in vitro cell test. The class given is cell-based. Conditions: 96 h, 20 ppm of active ingredient, liquid culture, 4 days incubation, read-out: efficacy (inhibition of fungal growth). As to the method: • Solvent: DMSO • Culture medium: 14.6 g anhydrous D-glucose (VWR), 7.1 g Mycological Peptone (Oxoid), 1.4 g granulated Yeast Extract (Merck), QSP 1 liter • Inoculum: spore suspension
Fungicides were solubilized in DMSO and the solution used to prepare the required range of concentrations. The final concentration of DMSO used in the assay was ≤1%.
A spore suspension of Fusarium culmorum was prepared and diluted to the desired spore density.
Fungicides were evaluated for their ability to inhibit spore germination and mycelium growth in liquid culture assay. The compounds were added in the desired concentration to the culture medium with spores. After 4 days incubation, fungi-toxicity of compounds was determined by spectrometric measurement of mycelium growth. Inhibition of fungal growth was determined by comparing the absorbance values in wells containing the fungicides with the absorbance in control wells without fungicides.

Another data set has as its system Pyricularia oryzae. Briefly: microbe, parasite or virus in culture. The conditions noted are these: 120 h, read-out: efficacy (inhibition of fungal growth). The class given is cell-based.
Data set [2] relates to Colletotrichum lindemuthianum. The experiment in a line: Colletotrichum lindemuthianum in vitro cell test. The class given is cell-based. The conditions noted are these: 144 h, 20 ppm of active ingredient, liquid culture, 6 days incubation, read-out: efficacy (inhibition of fungal growth). As to the method:
as §1, with “1%.” for “≤1%.”, “Colletotrichum lindemuthianum” for “Alternaria alternata”, “6” for “5”

Setting [3] is: method [a]: LC-UV, acidic range, 0.1% formic acid in water and acetonitrile as eluent.
Setting [4] is: method [b]: LC-UV, neutral range, 0.001 molar ammonium acetate solution in water and acetonitrile as eluent.

Molecule `Cc1ccc(C[C@H](CCl)NC(=O)c2c(Oc3cccc(C(F)F)c3)cnc3ccccc23)c(Cl)c1` (racemic) [Compound 10-05] returned a chromatographic logP in data set [1] (setting [3]) of 4.33.

Take `Cc1ccc(C[C@H](CCl)NC(=O)c2c(Oc3cccc(C(F)(F)F)c3)cnc3ccoc23)c(C)c1` (racemic) [Compound 10-06]: in data set [1] (setting [3]), the chromatographic logP turned out to be 4.55.

Regarding `Cc1ccc(C[C@H](CCl)N/C(=N\O)c2c(Oc3cccc(C4CC4)c3F)nnc3ccccc23)c(C)c1` (racemic) [Compound 12-01, N-[(2RS)-1-chloro-3-(2,4-dimethylphenyl)propan-2-yl]-3-(3-cyclopropyl-2-fluorophenoxy)-N′-hydroxycinnoline-4-carboximidamide], in data set [1] (setting [3]), the chromatographic logP amounted to 4.7.

Consider `Cc1ccc(C[C@H](CCl)NC(=NO)c2c(Oc3cccc(C4CC4)c3F)cnc3ccccc23)c(Cl)c1` (racemic) [Compound 12-02], for which the chromatographic logP in data set [1] (setting [3]) stood at 4.93.

As to `Cc1ccc(C[C@H](CCl)NC(=NO)c2c(Oc3cccc(Br)c3F)cnc3ccccc23)c(Cl)c1` (racemic) [Compound 12-03], the chromatographic logP in data set [1] (setting [3]) came to 4.62.

Take `Cc1ccc(C[C@H](CCl)NC(=NO)c2c(Oc3cccc(C(F)F)c3)cnc3ccccc23)c(Cl)c1` (racemic) [Compound 12-04]: the chromatographic logP in data set [1] (setting [3]) was 4.28.

The molecule `Cc1ccc(C[C@H](CCl)NC(=NO)c2c(Oc3cccc(C(F)(F)F)c3)cnc3ccoc23)c(C)c1` (racemic) [Compound 12-05] came in with a chromatographic logP in data set [1] (setting [3]) of 4.4.

On to `Cc1ccc(C[C@H](CCl)NC(=O)c2c(Br)cnc3nccnc23)c(C)c1` (racemic) [Compound 14-01], for which the chromatographic logP in data set [1] (setting [3]) was 2.97.

`Cc1ccc(C[C@H](CCl)NC(=NO)c2c(Br)cnc3nccnc23)c(C)c1` (racemic) [Compound 15-01] displayed a chromatographic logP in data set [1] (setting [3]) of 2.73.

In turn, `Cc1cccc(Oc2nnc3ccccc3c2C2=NOCC(Cc3ccc(C)cc3C)N2)c1` (racemic) [Compound I-001, 4-[(5RS)-5-(2,4-dimethylbenzyl)-5,6-dihydro-4H-1,2,4-oxadiazin-3-yl]-3-(3-methylphenoxy)cinnoline] gave a chromatographic logP in data set [1] (setting [3]) of 3.85. Besides, the inhibition at 20 ppm (with Alternaria alternata; with Fusarium culmorum; in the data set with Pyricularia oryzae; in data set [2]) was at least 70% each time.

In turn, `Cc1ccc(CC2CON=C(c3c(Oc4cccc(Cl)c4)nnc4ccccc34)N2)c(C)c1` (racemic) [Compound I-002, 3-(3-chlorophenoxy)-4-[(5RS)-5-(2,4-dimethylbenzyl)-5,6-dihydro-4H-1,2,4-oxadiazin-3-yl]cinnoline] displayed a chromatographic logP in data set [1] (setting [3]) of 3.96. For the same molecule, the inhibition at 20 ppm (in the data set on Alternaria alternata; with Fusarium culmorum; with Pyricularia oryzae; in data set [2]) was at least 70% in each case.

As for `Cc1ccc(C[C@@H]2CON=C(c3c(Oc4cccc(C5CC5)c4)nnc4ccccc34)N2)c(C)c1` (racemic) [Compound I-003], the chromatographic logP in data set [1] (setting [3]) turned out to be 4.11. In addition, the inhibition at 20 ppm (in the data set on Alternaria alternata; with Fusarium culmorum; in the data set with Pyricularia oryzae; in data set [2]) was at least 70% in each case.

Consider `Cc1ccc(C[C@@H]2CON=C(c3c(Oc4cccc(C(F)(F)F)c4)cnc4ccccc34)N2)c(C)c1` (racemic) [Compound I-004], for which the chromatographic logP in data set [1] (setting [3]) was 4.19. For the same molecule, the inhibition at 20 ppm (in the data set on Alternaria alternata; in the data set with Fusarium culmorum; with Pyricularia oryzae; in data set [2]) was at least 70% throughout.

In the case of `Cn1cc(-c2ccc(C[C@@H]3CON=C(c4c(Oc5cccc(C(F)(F)F)c5)nnc5ccccc45)N3)c(Cl)c2)cn1` (racemic) [Compound I-008], in data set [1] (setting [3]), the chromatographic logP was determined as 3.37. In addition, the inhibition at 20 ppm (in the data set on Alternaria alternata; in the data set with Pyricularia oryzae; in data set [2]) was at least 70% throughout.

In turn, `Cc1ccc(CC2CNN=C(c3c(Oc4cccc(C(F)(F)F)c4)cnc4ccccc34)N2)c(C)c1` (racemic) [Compound I-010, 4-[(5RS)-5-(2,4-dimethylbenzyl)-1,4,5,6-tetrahydro-1,2,4-triazin-3-yl]-3-[3-(trifluoromethyl)phenoxy]quinoline] returned a chromatographic logP in data set [1] (setting [3]) of 2.57. The inhibition at 20 ppm in the data set on Alternaria alternata is at least 70%.

In data set [1] (setting [3]), `Cc1ccc(CC2CN=C(c3c(Oc4cccc(C(F)(F)F)c4)cnc4ccccc34)N2)c(C)c1` (racemic) [Compound I-011, 4-[(5RS)-5-(2,4-dimethylbenzyl)-4,5-dihydro-1H-imidazol-2-yl]-3-[3-(trifluoromethyl)phenoxy]quinoline] gave a chromatographic logP of 2.57. The inhibition at 20 ppm (in the data set with Alternaria alternata; in the data set on Pyricularia oryzae; in data set [2]) was at least 70% in each case.

Take `Cc1ccc(C[C@@H]2CN=C(c3c(Oc4cccc(Cl)c4)nnc4ccccc34)N2)c(C)c1` (racemic) [Compound I-012]: the chromatographic logP in data set [1] (setting [3]) came to 2.46. Also, the inhibition at 20 ppm (in the data set on Alternaria alternata; with Pyricularia oryzae; in data set [2]) was at least 70% each time.

Turning to `Cc1ccc(C[C@@H]2CON=C(c3c(Oc4cccc(C)c4F)cnc4ccccc34)N2)c(C)c1` (racemic) [Compound I-020], the chromatographic logP in data set [1] (setting [3]) stood at 4.15.

`Cc1ccc(C[C@@H]2CON=C(c3c(Oc4cccc(C5CC5)c4F)cnc4ccccc34)N2)c(Cl)c1` (racemic) [Compound I-021] showed a chromatographic logP in data set [1] (setting [3]) of 4.55.

For `Cc1ccc(C[C@@H]2CON=C(c3c(Oc4cccc(C(F)(F)F)c4)nnc4c3CCCC4)N2)c(C)c1` (racemic) [Compound I-022], in data set [1] (setting [3]), the chromatographic logP was found to be 3.99.

The molecule `Cc1ccc(C[C@@H]2CON=C(c3c(Oc4cccc(Cl)c4F)nnc4c3CCCC4)N2)c(C)c1` (racemic) [Compound I-023] displayed a chromatographic logP in data set [1] (setting [3]) of 3.91.

Regarding `Cc1ccc(C[C@@H]2CON=C(c3c(Oc4cccc(Br)c4F)nnc4c3CCCC4)N2)c(C)c1` (racemic) [Compound I-024], the chromatographic logP in data set [1] (setting [3]) is 4.01.

In data set [1] (setting [3]), `C#Cc1cccc(Oc2cnc3ccccc3c2C2=NOC[C@@H](Cc3ccc(C)cc3Cl)N2)c1` (racemic) [Compound I-025] gave a chromatographic logP of 3.91.

Molecule `C=Cc1cccc(Oc2cnc3ccccc3c2C2=NOC[C@@H](Cc3ccc(C)cc3Cl)N2)c1` (racemic) [Compound I-026] displayed a chromatographic logP in data set [1] (setting [3]) of 4.19.

In the case of `Cc1ccc(C[C@@H]2CON=C(c3c(Oc4cccc(C(F)(F)F)c4)nnc4c3CCC4)N2)c(C)c1` (racemic) [Compound I-027], the chromatographic logP in data set [1] (setting [3]) turned out to be 3.87.

Take `Cc1ccc(C[C@@H]2CON=C(c3c(Oc4cccc(C(F)F)c4)nnc4c3CCCC4)N2)c(C)c1` (racemic) [Compound I-028]: the chromatographic logP in data set [1] (setting [3]) amounted to 3.6.

`Cc1ccc(C[C@@H]2CON=C(c3c(Oc4cccc(C5CC5)c4F)nnc4c3CCC4)N2)c(C)c1` (racemic) [Compound I-029] gave a chromatographic logP in data set [1] (setting [3]) of 4.13.

In data set [1] (setting [3]), `Cc1ccc(C[C@@H]2CON=C(c3c(Oc4cccc(Br)c4F)cnc4ccccc34)N2)c(Cl)c1` (racemic) [Compound I-030] had a chromatographic logP of 4.37.

For the molecule `Cc1ccc(C[C@@H]2CON=C(c3c(Oc4cccc(C(F)F)c4)cnc4ccccc34)N2)c(Cl)c1` (racemic) [Compound I-031], in data set [1] (setting [3]), the chromatographic logP stood at 3.98.

In the case of `CCOC(=O)c1c(Oc2cccc(C(F)(F)F)c2)nnc2c1CCC2` [Compound 1-22], the chromatographic logP amounted to 3.5 in data set [1] (setting [3]) and 3.35 in data set [1] (setting [4]).

As to `O=C(O)c1c(Oc2cccc(C(F)(F)F)c2)nnc2c1CCC2` [Compound 1-23], the chromatographic logP in data set [1] (setting [3]) came out at 1.75; in data set [1] (setting [4]), 0.44.
